# Values of other authors in patent US20080286343A1, “Solid form” (priority 2007, published 2008).
# Conditions: g water per 1 g active; slightly soluble
smiles,measurement,value
Cn1c(=O)c2[nH]cnc2n(C)c1=O [Theophylline],Solubility in water (1 g in ... g water),100-1000 g water
